Experimental data reported in US10829478B2, “5-[3-[piperazin-1-yl]-3-oxo-propyl]-imidazolidine-2,4-dione derivatives as ADAMTS 4 and 5 inhibitors for treating e.g. osteoarthritis” (Galapagos NV, priority 2016, dated 2020).
Read-outs that look alike come from different tables or passages of the source.

Legend:
human MMP14 = human MMP14 (Homo sapiens (Human), UniProt P50281); assay: hMMP14 assay (390 MMP FRET Substrate I); assay type: biochemical; settings: human MMP14 (Biomol), read-out: hMMP-14 potency IC50
Description: The basis for the assay is the cleavage of the substrate 390 MMP FRET Substrate I (Anaspec Cat #AS-27076) by human MMP14 (Biomol, Cat #SE-259).
The reaction is initiated by adding to the assay plate 390 MMP FRET Substrate I (10 μL, 2.5 μM) in the same buffer.
Finally, the fluorescence is read on the Envision (Perkin Elmer) after an incubation of 60 min at room temperature (Excitation 485 nm, Emission 530).

human MMP13 [1] = target: T1, human MMP13 (Homo sapiens (Human), UniProt P45452); assay: hMMP13 assay, Protocol 1 (390 MMP FRET Substrate I, Chemicon enzyme); assay type: biochemical; settings: Protocol 1, human MMP13 (Chemicon), read-out: hMMP-13 potency IC50
Description: (§1) Human MMP13 is preactivated by incubated the enzyme in the same buffer complemented with 1 mM freshly prepared p-Aminophenylmercuric acetate (AMPA) for 1 h at 37° C.

rnADAMTS-5 (1-564-6H) = rnADAMTS-5 (1-564-6H) (Rattus norvegicus (Rat), UniProt Q6TY19); assay: Rat ADAMTS-5 TBIS-1 cleavage assay; assay type: biochemical; settings: 120 min at 37° C.; read-out: Rat ADAMTS-5 potency IC50
Chain of rnADAMTS-5 (1-564-6H) (Q6TY19 entry or part of it): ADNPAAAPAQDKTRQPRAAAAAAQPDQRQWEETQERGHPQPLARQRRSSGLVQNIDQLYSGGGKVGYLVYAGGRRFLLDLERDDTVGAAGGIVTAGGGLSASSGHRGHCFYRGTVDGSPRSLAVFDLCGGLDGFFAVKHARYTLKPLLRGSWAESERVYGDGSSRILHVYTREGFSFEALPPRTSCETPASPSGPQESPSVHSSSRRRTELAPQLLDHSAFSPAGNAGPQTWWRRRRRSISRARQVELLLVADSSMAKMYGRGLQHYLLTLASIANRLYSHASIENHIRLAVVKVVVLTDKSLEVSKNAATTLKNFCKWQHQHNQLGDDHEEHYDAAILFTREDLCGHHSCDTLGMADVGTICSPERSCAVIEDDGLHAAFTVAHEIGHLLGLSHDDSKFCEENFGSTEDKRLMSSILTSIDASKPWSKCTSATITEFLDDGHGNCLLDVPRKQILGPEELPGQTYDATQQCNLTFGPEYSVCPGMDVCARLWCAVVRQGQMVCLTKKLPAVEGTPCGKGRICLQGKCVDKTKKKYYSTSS

human ADAMTS-5 = human ADAMTS-5 (Homo sapiens (Human), UniProt Q9UNA0); assay: hADAMTS-5 TBIS-1 cleavage assay, Protocol 3; assay type: biochemical; settings: 90 min at 37° C., read-out: hADAMTS-5 potency IC50
Chain of human ADAMTS-5 (Q9UNA0 262-930): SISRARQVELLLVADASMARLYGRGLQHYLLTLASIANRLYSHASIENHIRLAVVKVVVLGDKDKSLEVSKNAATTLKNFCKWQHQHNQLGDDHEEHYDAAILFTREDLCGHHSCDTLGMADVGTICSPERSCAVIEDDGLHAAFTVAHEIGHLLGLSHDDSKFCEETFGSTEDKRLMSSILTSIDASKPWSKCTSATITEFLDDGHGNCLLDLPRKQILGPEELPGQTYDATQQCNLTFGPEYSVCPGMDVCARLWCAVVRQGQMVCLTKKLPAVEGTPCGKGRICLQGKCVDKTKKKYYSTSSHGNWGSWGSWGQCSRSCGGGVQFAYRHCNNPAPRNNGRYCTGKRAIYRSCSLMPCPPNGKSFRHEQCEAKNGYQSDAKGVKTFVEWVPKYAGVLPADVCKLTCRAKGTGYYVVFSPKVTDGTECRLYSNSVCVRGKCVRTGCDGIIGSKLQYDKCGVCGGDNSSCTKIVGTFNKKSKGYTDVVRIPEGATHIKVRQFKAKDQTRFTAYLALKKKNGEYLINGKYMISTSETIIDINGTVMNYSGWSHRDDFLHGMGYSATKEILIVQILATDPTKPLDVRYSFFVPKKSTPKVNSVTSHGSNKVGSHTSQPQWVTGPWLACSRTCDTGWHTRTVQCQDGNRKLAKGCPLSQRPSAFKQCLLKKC
Description: The reaction is initiated by adding to the assay plate TBIS-1 (10 μL, 4.5 μM, Anaspec) in the same buffer.
Finally, the fluorescence is read on the Envision (Perkin Elmer) after an incubation of 90 min at 37° C. (Excitation 485 nm, emission 530).

human ADAMTS4 = human ADAMTS4 (Homo sapiens (Human), UniProt O75173); assay: hADAMTS-4 TBIS-1 cleavage assay, Protocol 2; assay type: biochemical
Chain of human ADAMTS4 (O75173 213-837): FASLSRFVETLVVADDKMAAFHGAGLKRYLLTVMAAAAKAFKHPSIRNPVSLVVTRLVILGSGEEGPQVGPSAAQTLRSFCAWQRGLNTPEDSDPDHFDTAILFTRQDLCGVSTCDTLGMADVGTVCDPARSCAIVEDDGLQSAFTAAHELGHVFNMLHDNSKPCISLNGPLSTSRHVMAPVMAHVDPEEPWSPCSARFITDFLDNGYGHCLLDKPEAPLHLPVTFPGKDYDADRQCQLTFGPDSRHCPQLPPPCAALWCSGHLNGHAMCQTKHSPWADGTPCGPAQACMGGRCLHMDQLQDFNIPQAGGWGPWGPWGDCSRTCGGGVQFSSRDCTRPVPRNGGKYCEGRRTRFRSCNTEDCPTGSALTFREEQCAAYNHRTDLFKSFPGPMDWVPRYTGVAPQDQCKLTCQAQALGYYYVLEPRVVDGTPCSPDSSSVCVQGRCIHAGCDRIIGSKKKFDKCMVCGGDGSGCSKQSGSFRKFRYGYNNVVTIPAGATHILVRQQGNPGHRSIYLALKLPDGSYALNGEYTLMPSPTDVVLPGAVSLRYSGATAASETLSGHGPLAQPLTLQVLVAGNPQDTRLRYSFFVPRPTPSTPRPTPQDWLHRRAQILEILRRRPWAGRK

human ADAMTS6 = human ADAMTS6 (Homo sapiens (Human), UniProt Q9UKP5); assay: hADAMTS-6 fluorescent based protease assay (520 MMP FRET substrate XII); assay type: biochemical; settings: 37° C. for 2 h; read-out: hADAMTS-6 potency IC50
Chain of human ADAMTS6 (Q9UKP5 other isoform, or with tags, fused parts or gaps): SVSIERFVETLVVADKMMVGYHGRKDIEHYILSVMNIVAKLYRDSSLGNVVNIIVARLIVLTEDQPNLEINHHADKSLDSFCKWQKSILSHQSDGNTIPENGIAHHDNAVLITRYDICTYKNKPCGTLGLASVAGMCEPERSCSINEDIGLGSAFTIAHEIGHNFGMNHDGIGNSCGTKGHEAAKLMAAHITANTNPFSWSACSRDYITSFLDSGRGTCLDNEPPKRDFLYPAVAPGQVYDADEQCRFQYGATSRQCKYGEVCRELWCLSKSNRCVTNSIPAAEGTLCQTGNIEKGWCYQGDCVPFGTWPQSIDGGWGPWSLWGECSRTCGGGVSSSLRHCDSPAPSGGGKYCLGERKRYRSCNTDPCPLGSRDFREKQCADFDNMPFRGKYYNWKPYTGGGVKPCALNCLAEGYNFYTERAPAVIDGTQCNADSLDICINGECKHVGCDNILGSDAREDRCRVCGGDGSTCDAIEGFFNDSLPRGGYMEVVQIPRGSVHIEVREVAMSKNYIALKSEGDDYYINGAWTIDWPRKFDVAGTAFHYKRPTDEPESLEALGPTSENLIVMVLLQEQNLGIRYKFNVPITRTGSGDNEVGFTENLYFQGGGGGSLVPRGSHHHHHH
In short: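 ADAMTS6 (0.73 nM final) in 25 mM Tris pH 8.0, 0.05% CHAPS, 2.5 mM CaCl2 with compound dilution series (top 20 μM, 1/5 steps). Reaction started with 520 MMP FRET Substrate XII, incubated 2 h at 37 °C. Substrate cleavage read by fluorescence ex485/em530; IC50 determined.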

human TACE = human TACE (Homo sapiens (Human), UniProt P78536); assay: biochemical
Chain of human TACE (P78536 215-671): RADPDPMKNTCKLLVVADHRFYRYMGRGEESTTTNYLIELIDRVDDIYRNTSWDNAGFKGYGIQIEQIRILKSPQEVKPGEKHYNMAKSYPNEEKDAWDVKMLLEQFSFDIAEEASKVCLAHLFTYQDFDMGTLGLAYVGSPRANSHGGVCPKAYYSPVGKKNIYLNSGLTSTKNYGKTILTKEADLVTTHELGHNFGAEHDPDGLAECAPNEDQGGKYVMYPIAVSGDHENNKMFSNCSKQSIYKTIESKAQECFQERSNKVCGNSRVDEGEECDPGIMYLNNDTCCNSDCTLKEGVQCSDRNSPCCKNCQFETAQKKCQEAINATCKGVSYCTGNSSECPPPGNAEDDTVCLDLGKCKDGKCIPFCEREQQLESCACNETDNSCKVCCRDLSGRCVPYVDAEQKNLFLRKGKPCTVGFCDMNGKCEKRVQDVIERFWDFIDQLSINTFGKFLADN
Description: Finally, the fluorescence is read on the Envision (Perkin Elmer) after an incubation of 75 min at room temperature (Excitation 485 nm, Emission 530).

human MMP13 [2] = target: T1, human MMP13; assay: hMMP13 assay, Protocol 2 (390 MMP FRET Substrate I, Enzo enzyme); assay type: biochemical; settings: Protocol 2, human MMP13 (Enzo Life Sciences), read-out: hMMP-13 potency IC50
Description: as §1

[3] = Protocol 2, 180 min at 37° C., read-out: ADAMTS4 potency IC50

| Structure (SMILES) | IC50 (human MMP14) [nM] | IC50 (human MMP13 [1]) [nM] | IC50 (rnADAMTS-5 (1-564-6H)) [nM] | IC50 (human ADAMTS-5) [nM] | IC50 (human ADAMTS4) [nM] | IC50 (human ADAMTS6) [nM] | IC50 (human TACE) [nM] | IC50 (human ADAMTS4; [3]) [nM] | IC50 (human MMP13 [2]) [nM] |
| --- | --- | --- | --- | --- | --- | --- | --- | --- | --- |
| COc1cc(N2CCN(C(=O)[C@@H](C)C[C@@]3(C)NC(=O)NC3=O)C[C@@H]2C)cc(F)c1F (mixture of isomers) [Cpd 42, 5-[3-[(3S)-4-(3,4-difluoro-5-methoxy-phenyl)-3-methyl-piperazin-1-yl]-2-methyl-3-oxo-propyl]-5-methyl-imidazolidine-2,4-dione] | > 100 | > 100 | 0.001 to 25 | 0.001 to 25 | 25 to 50 | 0.001 to 25 | > 100 | – | – |
| COc1cc(N2CCN(C(=O)[C@@H](C)C[C@@]3(C)NC(=O)NC3=O)C[C@@H]2C)ccc1Cl (stereo in doubt) [Cpd 41, 5-[3-[4-(4-chloro-3-methoxy-phenyl)-3-methyl-piperazin-1-yl]-2-methyl-3-oxo-propyl]-5-methyl-imidazolidine-2,4-dione] | > 100 | > 100 | 0.001 to 25 | 25 to 50 | – | 0.001 to 25 | > 100 | > 100 | – |
| COc1cc(N2CCN(C(=O)[C@@H](C)C[C@@]3(C)NC(=O)NC3=O)CC2)cc(F)c1F (stereo in doubt) [Cpd 43, 5-[3-[4-(3,4-difluoro-5-methoxy-phenyl)piperazin-1-yl]-2-methyl-3-oxo-propyl]-5-methyl-imidazolidine-2,4-dione] | > 100 | > 100 | 0.001 to 25 | 0.001 to 25 | 25 to 50 | 0.001 to 25 | > 100 | – | – |
| COc1cc(N2CCN(C(=O)[C@@H](C)C[C@@]3(CN4CCC(F)(F)C4)NC(=O)NC3=O)CC2)cc(F)c1F (stereo in doubt) [Cpd 52, 5-[3-[4-(3,4-difluoro-5-methoxy-phenyl)piperazin-1-yl]-2-methyl-3-oxo-propyl]-5-[(3,3-difluoropyrrolidin-1-yl)methyl]imidazolidine-2,4-dione] | > 100 | – | 50 to 100 | 50 to 100 | – | 0.001 to 25 | > 100 | > 100 | > 100 |
| COc1cc(N2CCN(C(=O)CCC3(C)NC(=O)NC3=O)C[C@@H]2C)ccc1Cl (stereo partly drawn) [Cpd 24, 5-[3-[(3S)-4-(4-chloro-3-methoxy-phenyl)-3-methyl-piperazin-1-yl]-3-oxo-propyl]-5-methyl-imidazolidine-2,4-dione] | > 100 | > 100 | 50 to 100 | 25 to 50 | – | 0.001 to 25 | > 100 | > 100 | – |
| COc1cc(N2CCN(C(=O)CC[C@@]3(C4CC4)NC(=O)NC3=O)C[C@@H]2C)cc(F)c1F [Cpd 37, (5S)-5-cyclopropyl-5-[3-[(3 S)-4-(3,4-difluoro-5-methoxy-phenyl)-3-methyl-piperazin-1-yl]-3-oxo-propyl]imidazolidine-2,4-dione] | > 100 | > 100 | 0.001 to 25 | 0.001 to 25 | 25 to 50 | 0.001 to 25 | > 100 | – | – |
| COc1cc(N2CCN(C(=O)[C@@H](C)C[C@@]3(c4ccccn4)NC(=O)NC3=O)CC2)cc(F)c1F [Cpd 54, (5 S)-5-[(2S)-3-[4-(3,4-difluoro-5-methoxy-phenyl)piperazin-1-yl]-2-methyl-3-oxo-propyl]-5-(2-pyridyl)imidazolidine-2,4-dione] | > 100 | – | 0.001 to 25 | 0.001 to 25 | 25 to 50 | 0.001 to 25 | > 100 | – | > 100 |
| COc1cc(N2CCN(C(=O)CC[C@H]3NC(=O)NC3=O)C[C@@H]2C)cc(F)c1Cl [Cpd 144, (5R)-5-[3-[(3 S)-4-(4-chloro-3-fluoro-5-methoxy-phenyl)-3-methyl-piperazin-1-yl]-3-oxo-propyl]imidazolidine-2,4-dione] | – | > 100 | 50 to 100 | 50 to 100 | – | 0.001 to 25 | > 100 | > 100 | – |
